This assay concerns the target T1, bond between rTRX and rMIF (Homo sapiens, UniProt P10599).
T1 construct: His tag; made in house; host or cells: Escherichia coli
T1 sequence (P10599 1-105): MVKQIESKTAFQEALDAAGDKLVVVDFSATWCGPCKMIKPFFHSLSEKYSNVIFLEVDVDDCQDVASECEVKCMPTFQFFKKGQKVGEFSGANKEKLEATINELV
Nature of the assay: Screening by molecular interaction analysis (Biacore, SPR) for test substances that strengthen the bond between TRX and MIF. To be noted: test substance 500 µM mixed with rTRX 5 µM (Prostaglandin 12 also at 5 µM); FIGS. 7 to 11. The format is binding. As to the method:
For several test substances, it was confirmed with a molecular interaction analysis whether they strengthened the bond between TRX and MIF or not.
rTRX; (same as the rTRX of Example 5) rMIF; (same as the rMIF of Example 5) BIAcore2000; (CM5 sensor chip)
N-acetylglucosamine Nitrosoglutathione Prostaglandin 12
rMIF was immobilized in a CM5 sensor chip as a ligand. The ligand was adjusted to have the rMIF concentration of less or equal to 200 nM by using running buffer, 10 mM HEPES (pH7.4), 150 mM NaCl, 3 mM EDTA and 0.005% Tween 20.
Then, N-acetylglucosamine, Nitrosoglutathione and Prostaglandin 12 were mixed with rTRX, respectively, to form three types of analytes.
In each analyte, the concentration of rTRX was 5 µM and the concentration of the test substance was 500 µM. For Prostaglandin 12, the analyte having its concentration of 5 µM was also analyzed.

As to Prostaglandin 12, the “effect on the bond between rTRX and rMIF” value is “remarkably strengthen the bond between rTRX and rMIF”.

Values taken from EP2363475A1, “SCREENING METHOD, COMPOSITION CONTAINING SUBSTANCE SELECTED BY THE SCREENING METHOD, AND BINDING SUBSTANCE” (Redox Bioscience Inc., priority 2008, dated 2010).
